This note sets out measurements from US20110263662A1, “1,2-DIAMIDO-ETHYLENE DERIVATIVES AS OREXIN ANTAGONISTS” (priority 2007, published 2011).

A word on the IC50: it is the point on the concentration scale where inhibition reaches its midpoint.

The target of experiment [1] is T1, human orexin-2 receptor (Homo sapiens, UniProt O43614).
T1 construct: expressed in transfected cells; host or cells: CHO (Chinese hamster ovary) cells, grown under G418 selection
T1 sequence (O43614 1-444): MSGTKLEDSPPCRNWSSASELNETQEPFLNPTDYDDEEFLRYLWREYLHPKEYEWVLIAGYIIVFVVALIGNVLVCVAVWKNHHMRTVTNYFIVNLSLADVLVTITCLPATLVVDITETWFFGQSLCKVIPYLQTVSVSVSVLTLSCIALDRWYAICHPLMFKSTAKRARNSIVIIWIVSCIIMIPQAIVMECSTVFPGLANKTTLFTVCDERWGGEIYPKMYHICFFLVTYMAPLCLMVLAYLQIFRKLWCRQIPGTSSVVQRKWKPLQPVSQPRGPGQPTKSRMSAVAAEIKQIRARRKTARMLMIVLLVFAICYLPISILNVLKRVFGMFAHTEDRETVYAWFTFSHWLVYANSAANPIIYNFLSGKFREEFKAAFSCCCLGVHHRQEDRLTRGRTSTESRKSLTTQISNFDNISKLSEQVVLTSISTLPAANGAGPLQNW
The experiment is described as follows: FLIPR intracellular calcium assay, orexin receptor antagonistic activity (OX2). In kind it is cell-based. As to conditions: CHO cells expressing human orexin-2 receptor, 3 nM orexin-A. The protocol:
(§1) Chinese hamster ovary (CHO) cells expressing the human orexin-1 receptor and the human orexin-2 receptor, respectively, are grown in culture medium (Ham F-12 with L-Glutamine) containing 300 μg/ml G418, 100 U/ml penicillin, 100 μg/ml streptomycin and 10% heat inactivated fetal calf serum (FCS). The cells are seeded at 20′000 cells/well into 384-well black clear bottom sterile plates (Greiner). The seeded plates are incubated overnight at 37° C. in 5% CO2.
(§2) Human orexin-A as an agonist is prepared as 1 mM stock solution in MeOH:water (1:1), diluted in HBSS containing 0.1% bovine serum albumin (BSA), NaHCO3:0.375 g/l and 20 mM HEPES for use in the assay at a final concentration of 3 nM.
(§3) Antagonists are prepared as 10 mM stock solution in DMSO, then diluted in 384-well plates, first in DMSO, then in HBSS containing 0.1% bovine serum albumin (BSA), NaHCO3: 0.375 g/l and 20 mM HEPES.
(§4) On the day of the assay, 50 μl of staining buffer (HBSS containing 1% FCS, 20 mM HEPES, NaHCO3: 0.375 g/l, 5 mM probenecid (Sigma) and 3 μM of the fluorescent calcium indicator fluo-4 AM (1 mM stock solution in DMSO, containing 10% pluronic) is added to each well.
(§5) The 384-well cell-plates are incubated for 50 min at 37° C. in 5% CO2 followed by equilibration at RT for 30-120 min before measurement.
(§6) Within the Fluorescent Imaging Plate Reader (FLIPR2 or FLIPR Tetra, Molecular Devices), antagonists are added to the plate in a volume of 10 μl/well, incubated for 10 min and finally 10 μl/well of agonist is added. Fluorescence is measured for each well at 1 second intervals, and the height of each fluorescence peak is compared to the height of the fluorescence peak induced by 3 nM orexin-A with vehicle in place of antagonist. For each antagonist, the IC50 value (the concentration of compound needed to inhibit 50% of the agonistic response) is determined. Optimized conditions may be achieved by adjustment of pipetting speed and cell splitting regime. The calculated IC50 values of the compounds may fluctuate depending on the daily cellular assay performance. Fluctuations of this kind are known to those skilled in the art.
A general note: A change in cytosolic calcium serves as a functional read-out for many receptors and channels.

Experiment [2] addresses T2, human orexin-1 receptor (Homo sapiens, UniProt O43613).
T2 construct: expressed in transfected cells; host or cells: CHO (Chinese hamster ovary) cells, grown under G418 selection
T2 sequence (O43613 1-425): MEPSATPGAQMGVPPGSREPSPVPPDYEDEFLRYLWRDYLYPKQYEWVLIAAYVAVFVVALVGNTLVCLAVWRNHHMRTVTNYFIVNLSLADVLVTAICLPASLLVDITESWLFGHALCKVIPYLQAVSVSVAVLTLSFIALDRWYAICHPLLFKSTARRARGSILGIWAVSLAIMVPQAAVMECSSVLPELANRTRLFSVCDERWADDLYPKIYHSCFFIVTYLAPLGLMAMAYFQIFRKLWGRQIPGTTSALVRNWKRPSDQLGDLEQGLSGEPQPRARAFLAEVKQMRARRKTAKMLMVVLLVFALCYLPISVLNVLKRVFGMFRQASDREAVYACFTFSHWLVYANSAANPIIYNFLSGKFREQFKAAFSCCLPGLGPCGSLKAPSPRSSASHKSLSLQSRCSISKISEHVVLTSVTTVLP
The experiment in a line: FLIPR intracellular calcium assay, orexin receptor antagonistic activity (OX1). In kind it is cell-based. To be noted: CHO cells expressing human orexin-1 receptor, 3 nM orexin-A. The protocol: as §1, §2, §3, §4, §5, §6

[3] abbreviates: measured with FLIPR Tetra (marked *).

In the case of `Cc1nc(C(=O)N(CCNC(=O)c2c(C)nc3sccn23)Cc2ccc(F)cc2)c(-c2ccccc2)s1` [Example 18, 6-Methyl-imidazo[2,1-b]thiazole-5-carboxylic acid {2-[(4-fluoro-benzyl)-(2-methyl-5-phenyl-thiazole-4-carbonyl)-amino]-ethyl}-amide], the IC50 in experiment [1] (measured with FLIPR 2) stood at 11 nM; in experiment [2] (measured with FLIPR 2), 7.8 nM.
The like results for `Cc1nc(C(=O)N(CCNC(=O)c2cccc3c2OCCO3)Cc2ccc(C(F)(F)F)cc2)c(-c2ccccc2)s1` [Example 25, 2-Methyl-5-phenyl-thiazole-4-carboxylic acid {2-[(2,3-dihydro-benzo[1,4]dioxine-5-carbonyl)-amino]-ethyl}-(4-trifluoromethyl-benzyl)-amide] were, in that order, 12 nM and 75 nM.
On the same counts, the results for `Cc1nc(C(=O)N(CCNC(=O)c2cccc3c2OCCO3)CC(C)C)c(-c2ccccc2)s1` [Example 31, 2-Methyl-5-phenyl-thiazole-4-carboxylic acid {2-[(2,3-dihydro-benzo[1,4]dioxine-5-carbonyl)-amino]-ethyl}-isobutyl-amide] are 85 nM and 504 nM.
On to `Cc1ccc(-c2sc(Br)nc2C(=O)N(CCNC(=O)c2c(C)nc3sccn23)C2CC2)cc1` [Example 111, 6-Methyl-imidazo[2,1-b]thiazole-5-carboxylic acid {2-[(2-bromo-5-p-tolyl-thiazole-4-carbonyl)-cyclopropyl-amino]ethyl}-amide], for which the IC50 in experiment [1] (setting [3]) was found to be 23 nM; in experiment [2] (setting [3]), 39 nM.
The like results for `COc1cccc(-c2sc(C)nc2C(=O)N(CCNC(=O)c2nn(C)c3ccccc23)C2CC2)c1` [Example 140, 1-Methyl-1H-indazole-3-carboxylic acid (2-{cyclopropyl-[5-(3-methoxy-phenyl)-2-methyl-thiazole-4-carbonyl]-amino}-ethyl)-amide] were, in that order, 68 nM and 98 nM.
On the same counts, the results for `Cc1cccc(-c2ccccc2C(=O)N(CCNC(=O)c2nn(C)c3ccccc23)C2CC2)c1` [Example 144, 1-Methyl-1H-indazole-3-carboxylic acid {2-[cyclopropyl-(3′-methyl-biphenyl-2-carbonyl)-amino]-ethyl}-amide] are 20 nM and 95 nM.
The like results for `Cc1nc(C(=O)N(CCNC(=O)c2cccc3occc23)C2CC2)c(-c2ccc(C)c(C)c2)s1` [Example 165, 5-(3,4-Dimethyl-phenyl)-2-methyl-thiazole-4-carboxylic acid {2-[(benzofuran-4-carbonyl)-amino]-ethyl}-cyclopropyl-amide] were, in that order, 4.3 nM and 2 nM.
For `Cc1cccc(-c2sc(C3CC3)nc2C(=O)N(CCNC(=O)c2c(C)nc3sccn23)CC2CC2)c1` [Example 171, 6-Methyl-imidazo[2,1-b]thiazole-5-carboxylic acid {2-[cyclopropylmethyl-(2-cyclopropyl-5-m-tolyl-thiazole-4-carbonyl)-amino]-ethyl}-amide], the IC50 amounted to 12 nM in experiment [1] (setting [3]) and 16 nM in experiment [2] (setting [3]).
The like results for `COc1cccc(-c2sc(Br)nc2C(=O)N(CCNC(=O)c2c(C)nc3sccn23)CC2CC2)c1` [Example 179, 6-Methyl-imidazo[2,1-b]thiazole-5-carboxylic acid (2-{[2-bromo-5-(3-methoxy-phenyl)-thiazole-4-carbonyl]-cyclopropylmethyl-amino}-ethyl)-amide] were, in that order, 10 nM and 10 nM.
The like results for `Cc1nc(C(=O)N(CCNC(=O)c2c(C)nc3sccn23)CC2CC2)c(-c2cccc(C#N)c2)s1` [Example 187, 6-Methyl-imidazo[2,1-b]thiazole-5-carboxylic acid (2-{[5-(3-cyano-phenyl)-2-methyl-thiazole-4-carbonyl]-cyclopropylmethyl-amino}-ethyl)-amide] were, in that order, 28 nM and 17 nM.
For `Cc1cccc(-c2sc(N)nc2C(=O)N(CCNC(=O)c2nn(C)c3ccccc23)CC2CC2)c1` [Example 195, 1-Methyl-1H-indazole-3-carboxylic acid {2-[(2-amino-5-m-tolyl-thiazole-4-carbonyl)-cyclopropylmethyl-amino]-ethyl}-amide], the IC50 in experiment [1] (setting [3]) was 12 nM; in experiment [2] (setting [3]), 57 nM.
Regarding `COc1cccc(-c2sc(C)nc2C(=O)N(CCNC(=O)c2cccc3c2OCCO3)CC2CC2)c1` [Example 248, 5-(3-Methoxy-phenyl)-2-methyl-thiazole-4-carboxylic acid cyclopropylmethyl-{2-[(2,3-dihydro-benzo[1,4]dioxine-5-carbonyl)-amino]-ethyl}-amide], the IC50 is 29 nM in experiment [1] (setting [3]) and 434 nM in experiment [2] (setting [3]).
The like results for `Cc1cccc(-c2ccccc2C(=O)N(CCNC(=O)c2cccc3c2OCCO3)CC2CC2)c1` [Example 252, 2,3-Dihydro-benzo[1,4]dioxine-5-carboxylic acid {2-[cyclopropylmethyl-(3′-methyl-biphenyl-2-carbonyl)-amino]-ethyl}-amide] were, in that order, 203 nM and 807 nM.
Regarding `Nc1nc(C(=O)N(CCNC(=O)c2cccc3occc23)CC2CC2)c(-c2ccc(F)cc2)s1` [Example 261, 2-Amino-5-(4-fluoro-phenyl)-thiazole-4-carboxylic acid {2-[(benzofuran-4-carbonyl)-amino]-ethyl}-cyclopropylmethyl-amide], the results for the IC50 in experiment [1] (setting [3]) and in experiment [2] (setting [3]) were 4.2 nM and 263 nM, respectively.
The like results for `Nc1nc(C(=O)N(CCNC(=O)c2cccc3occc23)CC2CC2)c(-c2cccc(Cl)c2)s1` [Example 262, 2-Amino-5-(3-chloro-phenyl)-thiazole-4-carboxylic acid {2-[(benzofuran-4-carbonyl)-amino]-ethyl}-cyclopropylmethyl-amide] were, in that order, 17 nM and 144 nM.
